Tests used:
[1] = tested on: adriamycin sensitive MCF7 cells; test: LIVE/DEAD viability/cytotoxicity assay, adriamycin sensitive MCF7 cell spheroids in microfluidic device (compared with 2D monolayers); format: cell-based
Description: FIGS. 6A and 6B show adriamycin resistant MCF7 cell spheroids at 96 hr incubation without doxorubicin (FIG. 6A) and at 48 hr incubation with 12.8 μM doxorubicin (FIG. 6B). […] FIGS. 6C and 6D show adriamycin sensitive MCF7 cell spheroids at 96 hr incubation without doxorubicin (FIG. 6C) and at 48 hr incubation with 12.8 μM doxorubicin (FIG. 6D).

[2] = tested on: co-cultured MCF7 and HS5 cells; test: LIVE/DEAD viability assay, co-cultured MCF7 and HS5 fibroblast cell spheroids in microfluidic device; format: cell-based; settings: 3D spheroids, doxorubicin 3200 nM and 12800 nM, FIG. 7D
[3] = tested on: adriamycin resistant MCF7 cells; test: LIVE/DEAD viability/cytotoxicity assay, adriamycin resistant MCF7 cell spheroids in microfluidic device (compared with 2D monolayers)
[4] = 3D spheroids, doxorubicin 800 nM to 12800 nM, FIG. 7C

COc1cccc2c1C(=O)c1c(O)c3c(c(O)c1C2=O)C[C@@](O)(C(=O)CO)C[C@@H]3O[C@H]1C[C@H](N)[C@H](O)[C@H](C)O1 [doxorubicin]
susceptibility to doxorubicin (red fluorescent nuclei staining) versus adriamycin resistant cells ([1]; 3D spheroids, 12.8 μM doxorubicin, 48 hr incubation, FIG. 6D vs 6B): more susceptible to doxorubicin than the adriamycin resistant cells
survival rate in spheroids [1, 4]: high and comparable survival rates
cell viability, 2D monolayers versus 3D spheroids ([1]; doxorubicin 1600 nM to 12800 nM, p<0.05, FIG. 7B): statistically significant difference in cell viability
overall cell survival rate in response to doxorubicin, with fibroblasts versus MCF7 adriamycin sensitive spheroids alone [2]: significant increase in the overall cell survival rate
cell viability, 2D monolayers versus 3D spheroids ([3]; 12.8 μM doxorubicin, p<0.05, cells more susceptible in 2D than 3D, FIG. 7A): statistically significant difference in cell viability
cell toxicity (red fluorescence, LIVE/DEAD assay) ([3]; 3D spheroids, 12.8 μM doxorubicin, 48 hr incubation, FIG. 6B): cell toxicity
survival rate in spheroids [3, 4]: high and comparable survival rates
